Assays:
Assay in all cases: cryo-EM structure ([…] A)
[1] = biological target: T1, Drosophila complex I (NADH-binding site at the FMN cofactor) (Drosophila melanogaster, UniProt Q9VMI3); details: co-purified; Dm1 active state
T1 construct: gene ND-51; native 43-subunit complex I, ~1 MDa monomer, purified from mitochondrial membranes of whole adult flies in DDM; no tag; with NADH dehydrogenase [ubiquinone] iron-sulfur protein 2; NADH dehydrogenase [ubiquinone] iron-sulfur protein 7; NADH-ubiquinone oxidoreductase chain 1

[2] = test system: T2, Drosophila complex I (ubiquinone-binding site; subunits NDUFS2, NDUFS7, ND1, ND3, ND6); parameters: species or system Drosophila melanogaster; details: co-purified; Dm1 active state; partially inserted in ubiquinone channel; ubiquinone-9 or -10 referred to as Q9
T2 construct: gene ND-49; native 43-subunit complex I (14 core, 29 supernumerary), ~1 MDa monomer, purified from mitochondrial membranes of whole adult flies in DDM; no tag; NDUFA2 and NDUFC1 absent; with NADH dehydrogenase [ubiquinone] flavoprotein 1

[3] = biological target: T3, subunit NDUFA10 of Drosophila complex I (Drosophila melanogaster, UniProt P91929); format: binding; details: modelled in Dm1 map; identity taken from earlier work
T3 construct: gene ND-42; subunit within native 43-subunit complex I purified from mitochondrial membranes of whole adult flies; no tag
T3 sequence (P91929 61-407): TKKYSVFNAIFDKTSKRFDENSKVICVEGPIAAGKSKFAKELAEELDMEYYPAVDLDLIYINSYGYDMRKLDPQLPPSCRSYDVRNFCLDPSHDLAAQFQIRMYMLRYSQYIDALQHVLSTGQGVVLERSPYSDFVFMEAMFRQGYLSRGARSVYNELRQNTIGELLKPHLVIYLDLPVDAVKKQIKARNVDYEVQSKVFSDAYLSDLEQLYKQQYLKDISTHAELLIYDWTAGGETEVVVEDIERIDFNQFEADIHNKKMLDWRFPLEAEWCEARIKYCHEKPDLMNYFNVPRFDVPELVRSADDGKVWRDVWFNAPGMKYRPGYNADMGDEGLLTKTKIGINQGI

T2 sequence (Q9V4E0 39-468): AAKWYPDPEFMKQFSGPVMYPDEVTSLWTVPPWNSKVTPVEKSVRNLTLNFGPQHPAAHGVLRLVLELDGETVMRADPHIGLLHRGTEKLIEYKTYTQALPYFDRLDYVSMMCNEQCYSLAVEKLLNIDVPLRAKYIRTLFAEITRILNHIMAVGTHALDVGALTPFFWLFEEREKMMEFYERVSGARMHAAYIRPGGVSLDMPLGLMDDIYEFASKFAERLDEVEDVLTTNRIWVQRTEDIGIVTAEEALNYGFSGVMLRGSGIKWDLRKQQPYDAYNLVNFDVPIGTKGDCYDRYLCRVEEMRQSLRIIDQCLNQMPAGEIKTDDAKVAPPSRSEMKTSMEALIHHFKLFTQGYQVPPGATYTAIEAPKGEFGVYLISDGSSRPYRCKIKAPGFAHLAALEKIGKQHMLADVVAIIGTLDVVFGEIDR
T2 sequence (Q9VXK7 40-221, further chain): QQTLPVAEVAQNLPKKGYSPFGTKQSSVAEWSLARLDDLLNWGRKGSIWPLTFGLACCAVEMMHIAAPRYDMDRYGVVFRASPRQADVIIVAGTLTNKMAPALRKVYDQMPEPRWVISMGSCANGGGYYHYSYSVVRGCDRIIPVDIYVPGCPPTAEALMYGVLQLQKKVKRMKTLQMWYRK
T2 sequence (C7DZL9 1-315, further chain): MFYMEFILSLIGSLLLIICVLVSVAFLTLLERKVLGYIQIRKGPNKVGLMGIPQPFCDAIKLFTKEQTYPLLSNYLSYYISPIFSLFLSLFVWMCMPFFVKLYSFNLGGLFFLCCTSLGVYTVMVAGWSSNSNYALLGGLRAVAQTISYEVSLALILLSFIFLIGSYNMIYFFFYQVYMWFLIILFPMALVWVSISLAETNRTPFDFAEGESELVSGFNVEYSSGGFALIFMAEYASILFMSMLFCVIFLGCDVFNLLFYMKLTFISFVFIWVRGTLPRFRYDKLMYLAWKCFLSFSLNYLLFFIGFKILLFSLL
T2 sequence (P18930 whole entry, further chain): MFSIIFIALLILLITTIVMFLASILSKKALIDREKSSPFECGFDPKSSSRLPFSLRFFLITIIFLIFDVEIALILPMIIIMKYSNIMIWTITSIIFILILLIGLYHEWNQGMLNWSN
T2 sequence (P18933 1-173, further chain): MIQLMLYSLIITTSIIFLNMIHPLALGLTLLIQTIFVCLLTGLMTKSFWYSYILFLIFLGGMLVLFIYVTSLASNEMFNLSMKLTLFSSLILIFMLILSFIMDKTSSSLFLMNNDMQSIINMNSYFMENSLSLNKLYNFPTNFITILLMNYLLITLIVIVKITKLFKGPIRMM
T1 sequence (Q9VMI3 34-474, one chain of several): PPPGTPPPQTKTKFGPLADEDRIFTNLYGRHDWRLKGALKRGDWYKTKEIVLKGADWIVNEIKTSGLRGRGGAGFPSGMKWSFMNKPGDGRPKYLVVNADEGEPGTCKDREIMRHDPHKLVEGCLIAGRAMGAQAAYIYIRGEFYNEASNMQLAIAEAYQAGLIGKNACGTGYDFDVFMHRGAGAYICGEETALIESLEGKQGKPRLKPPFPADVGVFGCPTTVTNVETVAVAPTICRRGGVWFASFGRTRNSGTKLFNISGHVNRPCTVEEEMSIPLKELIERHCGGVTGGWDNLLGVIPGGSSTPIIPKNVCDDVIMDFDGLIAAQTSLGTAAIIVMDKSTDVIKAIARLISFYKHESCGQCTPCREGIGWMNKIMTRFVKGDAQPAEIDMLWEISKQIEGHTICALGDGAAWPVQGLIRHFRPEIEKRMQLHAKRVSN

Cc1cc2nc3c(=O)[nH]c(=O)nc-3n(C[C@H](O)[C@H](O)[C@H](O)COP(=O)(O)O)c2cc1C [FMN]
cryo-EM structure (3.28 A) [1]: The NADH-binding site at the flavin mononucleotide (FMN) cofactor

COC1=C(OC)C(=O)C(C/C=C(\C)CC/C=C(\C)CC/C=C(\C)CC/C=C(\C)CC/C=C(\C)CC/C=C(\C)CC/C=C(\C)CC/C=C(\C)CCC=C(C)C)=C(C)C1=O [Q9]
cryo-EM structure (3.28 A) [2]: density for Q9 is observed within the site, although the Q9 is only partially inserted

Nc1nc2c(ncn2[C@H]2C[C@H](O)[C@@H](COP(=O)(O)OP(=O)(O)OP(=O)(O)O)O2)c(=O)[nH]1 [dGTP]
cryo-EM structure (3.28 A) [3]: dGTP was modelled in subunit NDUFA10
